In brackets after ≈: the same amount, converted by molar mass.
Tests used:
TEC = target: T1, TEC (Homo sapiens, UniProt P42680); assay: Kinome scan, TEC; type: biochemical
T1 sequence (P42680 1-631): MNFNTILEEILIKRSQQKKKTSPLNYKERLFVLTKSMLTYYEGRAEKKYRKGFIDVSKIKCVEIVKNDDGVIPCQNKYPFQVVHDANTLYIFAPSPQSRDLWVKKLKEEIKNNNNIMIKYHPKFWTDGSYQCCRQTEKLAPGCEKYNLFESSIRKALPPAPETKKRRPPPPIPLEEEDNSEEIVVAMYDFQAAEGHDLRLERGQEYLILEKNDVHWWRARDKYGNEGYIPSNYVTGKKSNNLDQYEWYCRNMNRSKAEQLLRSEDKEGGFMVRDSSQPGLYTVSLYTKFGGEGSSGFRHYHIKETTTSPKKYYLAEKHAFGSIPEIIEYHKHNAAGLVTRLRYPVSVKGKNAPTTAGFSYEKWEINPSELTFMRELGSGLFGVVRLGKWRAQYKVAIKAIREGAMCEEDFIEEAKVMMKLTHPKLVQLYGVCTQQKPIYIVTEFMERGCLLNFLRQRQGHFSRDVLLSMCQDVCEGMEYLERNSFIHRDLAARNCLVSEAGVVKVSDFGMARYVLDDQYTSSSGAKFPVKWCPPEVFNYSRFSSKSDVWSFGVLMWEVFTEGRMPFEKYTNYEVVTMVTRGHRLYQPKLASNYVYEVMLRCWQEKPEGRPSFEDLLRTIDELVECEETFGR
From the text: (§1) (S)-1-(1-acryloylpiperidin-3-yl)-2-fluoro-5,6,7,8,9,10-hexahydrocyclohepta[b]indole-4-carboxamide, hereinafter referred to as “Compound 1”, is an orally available, selective, potent inhibitor of Bruton's tyrosine kinase (BTK), thereby providing potential treatment options in BTK-driven diseases. The potency of Compound 1 for BTK inhibition is in the nM range in both cell-free enzymatic and whole blood functional assays.

[1] = target: T2, Bruton's tyrosine kinase (BTK) (Homo sapiens, UniProt Q06187); assay: BTK whole blood functional assay; type: cell-based
T2 construct: from tissue; host or cells: whole blood
From the text: as §1

[2] = Phase 1 multiple ascending dose plasma pharmacokinetics; type: in vivo; conditions: both sexes, human, oral, MAD cohort, 15 mg once daily for 10 days, fed
[3] = Solubility testing in vehicle, HPLC (Form III); type: physicochemical; conditions: for solubility at 24 h / solubility at 72 h / solubility at 4 h: thermodynamic from solid
Method: (§2) In each of the following studies (Examples 6-10), the starting material was Compound 1 (free form, not salt) Form III. The material was a light yellow solid, comprising non-hygroscopic irregular shaped crystal with aggregation. The same analytical methods as described in Example 1 were employed.
Vehicle solutions were prepared as follows:
Solubility was determined at room temperature for 24 and 72 hours and at 45° C. for 4 and 24 hours. About 30/100 mg Compound 1 was added to vehicle (2 mL) and the mixture stirred at room temperature for 24 or 72 hours. The suspensions were filtered or centrifuged, and the filtrate analyzed by HPLC.

[4] = pKa determination, Sirius T3 titrator (Form III); type: physicochemical; conditions: titrations at 25° C., acidic and basic sites
Method: as §2
pKa was assessed using Sirius T3 titrator. The acidic and basic sites were very weak, and undetectable by Sirius T3.

T2 sequence (Q06187 whole entry, species assumed): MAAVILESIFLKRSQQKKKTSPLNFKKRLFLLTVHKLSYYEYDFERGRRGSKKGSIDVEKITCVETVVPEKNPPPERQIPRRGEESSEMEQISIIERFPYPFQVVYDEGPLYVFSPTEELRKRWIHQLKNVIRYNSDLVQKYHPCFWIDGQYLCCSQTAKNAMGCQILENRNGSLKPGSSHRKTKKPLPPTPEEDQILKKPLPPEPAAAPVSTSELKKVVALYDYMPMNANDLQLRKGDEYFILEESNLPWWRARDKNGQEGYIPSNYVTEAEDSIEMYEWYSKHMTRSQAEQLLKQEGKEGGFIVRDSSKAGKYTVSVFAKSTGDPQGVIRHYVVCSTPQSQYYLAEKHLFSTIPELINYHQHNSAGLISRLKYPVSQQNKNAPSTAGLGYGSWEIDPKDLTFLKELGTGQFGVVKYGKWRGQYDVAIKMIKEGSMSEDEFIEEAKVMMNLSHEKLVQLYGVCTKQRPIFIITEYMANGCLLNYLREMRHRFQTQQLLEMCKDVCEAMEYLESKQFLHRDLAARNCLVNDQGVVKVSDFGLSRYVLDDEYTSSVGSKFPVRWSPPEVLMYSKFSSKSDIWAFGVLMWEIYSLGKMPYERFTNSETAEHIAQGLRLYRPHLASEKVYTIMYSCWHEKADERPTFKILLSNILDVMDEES

inhibition at 1 µM (TEC): > 50% | potency for BTK inhibition [1]: nM range | Tmax [2]: 1.5 h | Solubility ([3]; Capryol 90, RT, 72 h, pH 6.5, loading 50 mg/mL): >50 mg/mL | Solubility ([3]; Cremophor HS 15, 45° C., 24 h, pH 7.5, loading 50 mg/mL): >50 mg/mL | Solubility ([3]; Gelucire 44/14, 45° C., 24 h, pH 5.8, loading 50 mg/mL): >50 mg/mL | Solubility ([3]; Gelucire 48/16, 45° C., 24 h, loading 50 mg/mL): >50 mg/mL | Solubility ([3]; Labrasol, RT, 72 h, pH 6.4, loading 50 mg/mL): >50 mg/mL | Solubility ([3]; PEG400/TPGS(3/1), 45° C., 24 h, pH 6.1, loading 50 mg/mL): >50 mg/mL | Solubility ([3]; PEG400, RT, 72 h, pH 6.7, loading 50 mg/mL): >50 mg/mL | Solubility ([3]; PG, RT, 72 h, pH 5.2, loading 50 mg/mL): >50 mg/mL | solubility at 24 h ([3]; aqueous with cosolvent or surfactant or cyclodextrin, 1% SLS, RT, 24 h, pH 7.1, loading 15 mg/mL): 1200 µg/mL (≈ 3.13 mM) | solubility at 72 h ([3]; aqueous with cosolvent or surfactant or cyclodextrin, 1% SLS, RT, 72 h, pH 7.2, loading 15 mg/mL): 1150 µg/mL (≈ 3 mM) | solubility at 24 h ([3]; aqueous with cosolvent or surfactant or cyclodextrin, 1% Tween 80, RT, 24 h, pH 6.3, loading 15 mg/mL): 160 µg/mL (≈ 0.417 mM) | solubility at 72 h ([3]; aqueous with cosolvent or surfactant or cyclodextrin, 1% Tween 80, RT, 72 h, pH 6.3, loading 15 mg/mL): 170 µg/mL (≈ 0.443 mM) | solubility at 24 h ([3]; aqueous with cosolvent or surfactant or cyclodextrin, 1% polox188, RT, 24 h, pH 5.7, loading 15 mg/mL): 0.2 µg/mL (≈ 0.000522 mM) | solubility at 72 h ([3]; aqueous with cosolvent or surfactant or cyclodextrin, 1% polox188, RT, 72 h, pH 5.7, loading 15 mg/mL): 0.4 µg/mL (≈ 0.00104 mM) | solubility at 24 h ([3]; aqueous with cosolvent or surfactant or cyclodextrin, 1% polox407, RT, 24 h, pH 6.7, loading 15 mg/mL): 4 µg/mL (≈ 0.0104 mM) | solubility at 72 h ([3]; aqueous with cosolvent or surfactant or cyclodextrin, 1% polox407, RT, 72 h, pH 6.9, loading 15 mg/mL): 1 µg/mL (≈ 0.00261 mM) | solubility at 24 h ([3]; aqueous with cosolvent or surfactant or cyclodextrin, 5% PVP K30, RT, 24 h, pH 4.0, loading 15 mg/mL): 8 µg/mL (≈ 0.0209 mM) | solubility at 72 h ([3]; aqueous with cosolvent or surfactant or cyclodextrin, 5% PVP K30, RT, 72 h, pH 4.0, loading 15 mg/mL): 60 µg/mL (≈ 0.156 mM) | solubility at 24 h ([3]; aqueous with cosolvent or surfactant or cyclodextrin, 5% PVP VA64, RT, 24 h, pH 4.6, loading 15 mg/mL): 36 µg/mL (≈ 0.0939 mM) | solubility at 72 h ([3]; aqueous with cosolvent or surfactant or cyclodextrin, 5% PVP VA64, RT, 72 h, pH 4.6, loading 15 mg/mL): 42 µg/mL (≈ 0.11 mM) | solubility at 24 h ([3]; aqueous with cosolvent or surfactant or cyclodextrin, 10% HP-B-CD, RT, 24 h, pH 6.7, loading 15 mg/mL): 230 µg/mL (≈ 0.6 mM) | solubility at 72 h ([3]; aqueous with cosolvent or surfactant or cyclodextrin, 10% HP-B-CD, RT, 72 h, pH 6.7, loading 15 mg/mL): 220 µg/mL (≈ 0.574 mM) | solubility at 24 h ([3]; aqueous with cosolvent or surfactant or cyclodextrin, 10% SBE-B-CD, RT, 24 h, pH 6.5, loading 15 mg/mL): 1600 µg/mL (≈ 4.17 mM) | solubility at 72 h ([3]; aqueous with cosolvent or surfactant or cyclodextrin, 10% SBE-B-CD, RT, 72 h, pH 6.5, loading 15 mg/mL): 1610 µg/mL (≈ 4.2 mM) | solubility at 24 h ([3]; aqueous with cosolvent or surfactant or cyclodextrin, 10% TPGS, RT, 24 h, pH 5.3, loading 15 mg/mL): 2030 µg/mL (≈ 5.29 mM) | solubility at 72 h ([3]; aqueous with cosolvent or surfactant or cyclodextrin, 10% TPGS, RT, 72 h, pH 5.3, loading 15 mg/mL): 2040 µg/mL (≈ 5.32 mM) | solubility at 4 h ([3]; aqueous with cosolvent or surfactant or cyclodextrin, Cremophor RH40, 45° C., loading 50 mg/mL): 18.6 mg/mL (≈ 48.5 mM) | solubility at 4 h ([3]; aqueous with cosolvent or surfactant or cyclodextrin, Gelucire 44/14, 45° C., pH 5.7, loading 50 mg/mL): 48.1 mg/mL (≈ 125 mM) | solubility at 24 h ([3]; aqueous with cosolvent or surfactant or cyclodextrin, Gelucire 44/14, 45° C., 24 h, pH 5.8, loading 50 mg/mL): > 50000 µg/mL | solubility at 4 h ([3]; aqueous with cosolvent or surfactant or cyclodextrin, Gelucire 48/16, 45° C., loading 50 mg/mL): 44.3 mg/mL (≈ 116 mM) | solubility at 24 h ([3]; aqueous with cosolvent or surfactant or cyclodextrin, Gelucire 48/16, 45° C., 24 h, loading 50 mg/mL): > 50000 µg/mL | solubility at 24 h ([3]; aqueous with cosolvent or surfactant or cyclodextrin, Labrasol, RT, 24 h, pH 6.9, loading 50 mg/mL): > 50000 µg/mL | solubility at 72 h ([3]; aqueous with cosolvent or surfactant or cyclodextrin, Labrasol, RT, 72 h, pH 6.4, loading 50 mg/mL): > 50000 µg/mL | solubility at 24 h ([3]; oil or lipid, Capryol 90, RT, 24 h, pH 6.8, loading 50 mg/mL): 47900 µg/mL (≈ 125 mM) | solubility at 72 h ([3]; oil or lipid, Capryol 90, RT, 72 h, pH 6.5, loading 50 mg/mL): > 50000 µg/mL | solubility at 24 h ([3]; oil or lipid, Miglyol 810, RT, 24 h, pH 5.8, loading 15 mg/mL): 2160 µg/mL (≈ 5.63 mM) | solubility at 72 h ([3]; oil or lipid, Miglyol 810, RT, 72 h, pH 5.8, loading 15 mg/mL): 2670 µg/mL (≈ 6.96 mM) | solubility at 4 h ([3]; oil or lipid, Oleic acid, 45° C., pH 3.0, loading 15 mg/mL): 8.5 mg/mL (≈ 22.2 mM) | solubility at 24 h ([3]; oil or lipid, Oleic acid, 45° C., 24 h, pH 3.3, loading 15 mg/mL): 14000 µg/mL (≈ 36.5 mM) | solubility at 24 h ([3]; oil or lipid, Olive oil, RT, 24 h, pH 5.2, loading 15 mg/mL): 440 µg/mL (≈ 1.15 mM) | solubility at 72 h ([3]; oil or lipid, Olive oil, RT, 72 h, pH 5.8, loading 15 mg/mL): 910 µg/mL (≈ 2.37 mM) | solubility at 24 h ([3]; oil or lipid, Phosal 50PG, RT, 24 h, pH 5.8, loading 50 mg/mL): 15600 µg/mL (≈ 40.8 mM) | solubility at 72 h ([3]; oil or lipid, Phosal 50PG, RT, 72 h, pH 5.8, loading 50 mg/mL): 23800 µg/mL (≈ 62 mM) | solubility at 24 h ([3]; oil or lipid, Sesame oil, RT, 24 h, pH 6.5, loading 15 mg/mL): 730 µg/mL (≈ 1.9 mM) | solubility at 72 h ([3]; oil or lipid, Sesame oil, RT, 72 h, pH 6.5, loading 15 mg/mL): 760 µg/mL (≈ 1.98 mM) | solubility at 4 h ([3]; oil or lipid, phsal 53 MCT, 45° C., pH 5.3, loading 15 mg/mL): 6.4 mg/mL (≈ 16.7 mM) | solubility at 24 h ([3]; oil or lipid, phsal 53 MCT, 45° C., 24 h, pH 5.1, loading 15 mg/mL): > 15000 µg/mL | solubility at 24 h ([3]; organic solvent or mixture, Cremophor EL, RT, 24 h, pH 8.5, loading 50 mg/mL): 19500 µg/mL (≈ 50.9 mM) | solubility at 72 h ([3]; organic solvent or mixture, Cremophor EL, RT, 72 h, pH 8.3, loading 50 mg/mL): 33000 µg/mL (≈ 86.1 mM) | solubility at 4 h ([3]; organic solvent or mixture, Cremophor HS 15, 45° C., pH 7.6, loading 50 mg/mL): > 50 mg/mL | solubility at 24 h ([3]; organic solvent or mixture, Cremophor HS 15, 45° C., 24 h, pH 7.5, loading 50 mg/mL): > 50000 µg/mL | solubility at 24 h ([3]; organic solvent or mixture, Cremophor RH40, 45° C., 24 h, loading 50 mg/mL): 33000 µg/mL (≈ 86.1 mM) | solubility at 24 h ([3]; organic solvent or mixture, EtOH, RT, 24 h, pH 5.9, loading 50 mg/mL): 19400 µg/mL (≈ 50.6 mM) | solubility at 72 h ([3]; organic solvent or mixture, EtOH, RT, 72 h, pH 6.2, loading 50 mg/mL): 27600 µg/mL (≈ 72 mM) | solubility at 4 h ([3]; organic solvent or mixture, PEG400/TPGS(3/1), 45° C., pH 6.6, loading 50 mg/mL): > 50 mg/mL | solubility at 24 h ([3]; organic solvent or mixture, PEG400/TPGS(3/1), 45° C., 24 h, pH 6.1, loading 50 mg/mL): > 50000 µg/mL | solubility at 24 h ([3]; organic solvent or mixture, PEG400, RT, 24 h, pH 5.6, loading 50 mg/mL): > 50000 µg/mL | solubility at 72 h ([3]; organic solvent or mixture, PEG400, RT, 72 h, pH 6.7, loading 50 mg/mL): > 50000 µg/mL | solubility at 24 h ([3]; organic solvent or mixture, PG, RT, 24 h, pH 5.1, loading 50 mg/mL): 48200 µg/mL (≈ 126 mM) | solubility at 72 h ([3]; organic solvent or mixture, PG, RT, 72 h, pH 5.2, loading 50 mg/mL): > 50000 µg/mL | pKa [4]: undetectable
SMILES: C=CC(=O)N1CCC[C@@H](c2c(F)cc(C(N)=O)c3[nH]c4c(c23)CCCCC4)C1 [Compound 1, (S)-1-(1-acryloylpiperidin-3-yl)-2-fluoro-5,6,7,8,9,10-hexahydrocyclohepta[b]indole-4-carboxamide]

From patent US20250243176A1, “(S)-1-(1-ACRYLOYLPIPERIDIN-3-YL)-2-FLUORO-5,6,7,8,9,10-HEXAHYDROCYCLO HEPTA[B]INDOLE-4-CARBOXAMIDE, AND RELATED CRYSTALLINE FORMS, COMPOSITIONS, AND METHODS THEREOF” (GB005, Inc., priority 2021, published 2025)
